Experimental data reported in PMC10861593, “Kisspeptin-10 binding to Gpr54 in osteoclasts prevents bone loss by activating Dusp18-mediated dephosphorylation of Src” (Nature Communications, 2024).
Entries after “also recorded” stand apart in the source; their conditions may differ. Where no end group is shown, it is not given here. [ ]: non-standard residue; d: D form. azaGly = NNC(=O)O

Tests used:
[1] = cited from earlier work
Text: (§1) Bone targeting Kp-10 ([…] D-Tyr–Asn-(D-Trp)-Asn-Ser-Phe-(azaGly)-Leu-Arg (Me)-Phe-NH2) was designed using six repetitive sequences of aspartate, serine, and serine, which is a bone surface-targeting delivery system as previously described.

[2] = test system: GPR54; design: method as in PMID 22975302; details: cited from earlier work
Text: as §1

[3] = test system: FSH and LH; assay: Elisa of serum FSH and LH; format: in vivo, mouse; details: 10 nmol/kg twice per week for two months, versus vehicle; n = 6 per group
Text: Supplementary Fig. 16 a Representative image of Von Kossa staining of sham-operated female C57 mice treated with vehicle (Sham, n=4), ovariectomized mice (OVX, n=3), and OVX mice treatment with 1 nmol/kg Kp-10 (n=6),10 nmol/kg Kp-10 (n=6),1 nmol/kg (DSS)*6-Kp-10 (n=5) or 10 nmol/kg (DSS)*6-Kp-10 (n=6) twice one week by intraperitoneal injection for two months. […] BV/TV, bone volume as a fraction of total bone volume; Tb. Th, trabecular thickness; Tb. Sp, trabecular separation; Tb. N, trabecular number. c Elisa assay showing LH, FSH derived from the serum of sham-operated female C57 mice treated with vehicle (Sham+ vehicle) or 10 nmol/kg (DSS)*6-Kp-10 (Sham+10 nmol/kg Kp-10), ovariectomized mice treated with vehicle (OVX+ vehicle) or 10 nmol/kg (DSS)*6-Kp-10 (OVX+ 10 nmol/kg Kp-10) twice one week by intraperitoneal injection for two months. n=6 per group. Error bars are ± SEM. P-values were determined by two-way ANOVA analysis (b, c) ***P <0.001, ****P <0.0001. “ns” means no significant difference. Representative results were observed from at least three independent experiments. Source data are provided as a Source Data file.

[4] = test system: Dusp18 knockout mice; assay: bone and osteoclast parameters in Dusp18 knockout mice; format: in vivo, mouse; details: femur
Text: Data represent means ± SEM. […] Representative results were obtained from at least three independent experiments. Source data are provided as a Source Data file.

[5] = test system: OVX mice; assay: OVX-induced bone loss model (and sham-operated mice); format: in vivo, mouse
Text: Fig. 7 Kp-10 ameliorated OVX-induced bone loss. a, c Representative micro-CT images of femoral trabecular bone (a) and cortical bone (c). Female C57 mice treated with vehicle (Sham) or 50 nmol/kg (DSS)*6-Kp-10, ovariectomized mice (OVX) treated with vehicle or 50nmol/kg (DSS)*6-Kp-10 twice one week by intraperitoneal injection (n = 6 per group). Scale bar, 500 µm. b, d Parameter analysis of femurs from the mice above. BMD bone mineral density, BV/TV bone volume as a fraction of total bone volume, Tb.Th trabecular thickness, Tb.N trabecular number, Tb.Sp trabecular separation. e Representative TRAP staining images of femurs from Fig. 7a. f Histomorphometry analysis of the femurs from Fig. 7a. Oc.S/BS osteoclast surface per bone surface, N.Oc/B.Pm osteoclast bone surface density, ES/BS eroded surface per bone surface. Data represent means ± SEM. P values were determined by one-way ANOVA analysis (b, d, f). Representative results were obtained from at least three independent experiments. Source data are provided as a Source Data file.
3D micro-CT analyses were performed as previously described. We scanned the femur using in vitro X-ray microtomography (Skyscan 1272, Bruker micro CT) at a pixel size of 9 µm, and analyzed the results according to the manufacturer’s instructions. Region-of-interest (ROI) was defined from 10 to 110 image slices, where the growth plate slice was defined as 0 mm. The contrast was defined from 68–255; 3D analysis, BMD, and 3D models were analyzed using CTAn software (Bruker micro CT). 3D models were adjusted in CT Vox software (Bruker micro CT).
Bone tissue was removed of excess tissues and fixed with 4% formalin, decalcified with 0.5 M EDTA for 10–14 days, embedded with paraffin, sectioned, and stained using the TRAP staining kit (Sigma-Aldrich, 387A-1KT). The third lumbar spine vertebrae (L3) were fixed with 4% formalin, sectioned, and subjected to Von Kossa staining as described previously[60],[61]. For double calcian labeling assay, 4−5 week-old mice were administrated calcian (30 μg/mL) through intraperitoneal injection for the first time and the second time after 10 days. The third lumbar spine vertebrae (L3) were fixed with 4% formalin, sectioned, and subjected to Goldner’s Masson trichrome staining, or acquisition of fluorescence images. Histomorphometric measurements were made using the OsteoMeasure Analysis System (Osteometrics, Atlanta, GA, USA) according to standard criteria.
For animal studies in vivo, mice were randomized for weight. For the OVX-induced bone loss model, 2-month-old female C57BL/6 mice were sham-operated (sham) or ovariectomized (OVX) and randomly divided into indicated groups. Vehicle, Kp-10 or (DSS)*6-Kp-10 was injected into the tail vein twice per week. After two months of treatment, the femurs and the L3 lumbrae were isolated for micro-CT or histomorphometric analysis. 3D micro-CT analyses were performed according to a standard protocol. BMD and bone volume were analyzed by CT-analysis software (CTAn, Bruker micro CT, Kontich, Belgium) and images were reconstituted by CT-volume software (CTvol, skyscan, CTAn, Bruker micro CT, Kontich, Belgium).
Supplementary Fig. 16 a Representative image of Von Kossa staining of sham-operated female C57 mice treated with vehicle (Sham, n=4), ovariectomized mice (OVX, n=3), and OVX mice treatment with 1 nmol/kg Kp-10 (n=6),10 nmol/kg Kp-10 (n=6),1 nmol/kg (DSS)*6-Kp-10 (n=5) or 10 nmol/kg (DSS)*6-Kp-10 (n=6) twice one week by intraperitoneal injection for two months. […]

[6] = test system: GPR54 CT; assay: competitive pull-down assay, His-SRC and His-DUSP18 with GST-GPR54 CT; format: binding, human; details: His-SRC 0 or 0.1 μg, His-DUSP18 0, 0.1 or 0.2 μg
Description: Beads were analyzed by phosphatase activity assay (a), mass spectrometry assay (b), IB analysis (c) and quantification of protein levels (d). e, f Protein co-localization was analyzed by IF staining in primary pre-osteoclast with 10 nM Kp-10 treatment for 20 min. […] Scale bar, 50 µm. g, h binding affinity was measured by SPR binding analysis. […] Data represent means ± SEM. P values were determined by one-way ANOVA analysis (a, d, j, l) or two-tailed Student’s t-test (f). Representative results were obtained from at least three independent experiments. Source data are provided as a Source Data file.

[7] = test system: Src (Y416); assay: in vitro phosphatase activity assay with Src; format: biochemical, human; details: purified proteins; 30 min at 30 °C; Western blot
Description: The C terminus of human GPR54 (H329- L398) and mouse Gpr54 (R331- L396) cDNAs were subcloned into a pGEX-4T2 vector. For purification of full-length WT human DUSP18 and DUSP18 (C104S) proteins, DUSP18 was cloned into pMCSG7 vector. For purification of Src (G85-L536) protein, cDNAs of human Src were subcloned into pFastBac HT B vector with an N-terminal 6xHis tag and expressed in Sf9 cells (Expression Systems) using the Bac-to-Bac Baculovirus Expression System (Invitrogen) for 48 h. For purification of the Src (G85-V247)-GPR54 (333–356 with C338S, C340S mutation) recombinant fusion protein, the C-terminus of GPR54 (333–356 with C338S and C340S mutation) was linked to the C terminus of Src SH3-SH2 domain (G85-V247), which was subcloned into the pMCSG7 vector.
For the total phosphatase activity assay, the Co-IP experiment was carried out after Kp-10 treatment of RAW264.7 cells for 20 min, followed by lysis and incubation with the Gpr54 antibody. The assay was performed according to the phosphatase assay kit (Sigma-Aldrich,17-313). For the DUSP18 phosphatase activity assay, His-DUSP18 and His-DUSP18 (C104S) were purified from E Coli, and His-Src was purified from Sf9 insect cells. His-DUSP18 and His-DUSP18 (C104S) were incubated with His-Src in 1x phosphatase buffer (20 mM HEPES, 20 mM MgCl2, 0.03% β-mercaptoethanol)[51] for 30 min at 30 °C with gentle shaking. […]

[8] = test system: GPR54 CT; assay: GST pull-down / Co-IP of GPR54 CT with DUSP18, PTPN6 and PPP1CA; format: binding, human; details: 293T WCL, DUSP18-Flag, PPP1CA-Flag or PTPN6-Flag
Description: Supplementary Fig. 3 a, b SPR binding analysis showing the binding affinity of Src and human GPR54^336-356 peptide (a), Src and human GPR54 ^333-344 peptide (b). c, d Anti-Flag IP derived from 293T cells transfected with HA-Src and GPR54-Flag constructs with Kp-10 (10 nM) stimulation (c) and quantification of protein levels (d). e. e IF staining was carried out using pre-osteoclasts differentiated from BMMs in the presence of M-CSF (10 ng/ml) and RANKL (50 ng/ml) for 2 days. Representative images were shown by TIRF microscopy. f, g IB analysis of total samples and GST pull-downs using GST proteins including GST, GST-GPR54 CT incubated separately with WCL of 293T cells transfected with DUSP18-flag, PPP1CA-Flag or PTPN6-Flag (f), and quantification of protein levels (g). Error bars are ± SEM. P-values were determined by two-tailed Student’s t-test (d) or one-way ANOVA analysis (g). *P <0.05, Representative results were observed from at least three independent experiments. Source data are provided as a Source Data file.

D-Tyr–Asn-(D-Trp)-Asn-Ser-Phe-(azaGly)-Leu-Arg (Me)-Phe-NH2 [Modified Kp-10, Modified Kp-10 designed as previously described]
metabolic stability [1]: high metabolic stability
GPR54 agonistic activity [2]: excellent GPR54 agonistic activity

DSSDSSDSSDSSDSSDSS[dY]N[dW]NSF[azaGly]LR(Me)F-NH2 [(DSS)*6-Kp-10]
serum FSH and LH, sham and OVX mice [3]: same level of FSH and LH
rescue of Dusp18 deletion induced osteoclast activity ([4]; TRAP staining and osteoclast parameters): not by (DSS)*6-KP-10
rescue of Dusp18 deletion induced bone mass change ([4]; micro-CT and bone parameters, n = 5): not by (DSS)*6-KP-10
bone mass, 50 nmol/kg, sham and OVX mice ([5]; 50 nmol/kg twice per week, micro-CT, femur, n = 6 per group): bone mass increased
osteoclast activation, 50 nmol/kg, sham and OVX mice ([5]; 50 nmol/kg twice per week, TRAP staining, Oc.S/BS, N.Oc/B.Pm, ES/BS, n = 6 per group): suppressed osteoclast activation both in sham-operated and OVX mice
bone protective effect versus Kp-10 ([5]; OVX mice, 1 or 10 nmol/kg twice per week for two months, Von Kossa staining, trabecular bone parameters): rescued OVX induced bone loss more effectively than Kp-10; also recorded: showed better bone protective effect; also recorded: showed better effects than Kp-10 on bone protection
bone loss / bone protection in vivo (summary statement) ([5]; in vivo, OVX-induced bone loss model): showed bone protection in the OVX-induced bone loss model by inhibiting osteoclast activity; also recorded: protects against bone loss

B1: DUSP18: full-length WT human DUSP18 (protein, UniProt Q8NEJ0 1-188, looked up)
chain: MTAPSCAFPVQFRQPSVSGLSQITKSLYISNGVAANNKLMLSSNQITMVINVSVEVVNTLYEDIQYMQVPVADSPNSRLCDFFDPIADHIHSVEMKQGRTLLHCAAGVSRSAALCLAYLMKYHAMSLLDAHTWTKSCRPIIRPNSGFWEQLIHYEFQLFGKNTVHMVSSPVGMIPDIYEKEVRLMIPL
modifications: full-length His tag
competition with Src for binding to GPR54 CT [6]: competed with Src for binding to GPR54 CT
dephosphorylation of Src (Y416) [7]: potently reduced the phosphorylation of Src (Y416)
interaction with GPR54 among DUSP18, PTPN6 and PPP1CA [8]: had the strongest interaction with GPR54
